# Reference: PubChem BioAssay AID1963958 (Molecular Pharmacology Branch, DTP, NCI, 2024)
# System: MDA-MB-231 multicell spheroids, viability
# Assay: Anticancer human tumor MDA-MB-231 cell line growth inhibition [PI3K];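 further: spheroids exposed to agents for seven days before reading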;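 on viability, T/C: percent of vehicle control luminescence with DMSO treated spheroids as 100%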
# Settings: for IC50: curve of first compound; for viability, T/C: stronger effect = lower value
# From the text: Combinatorial screen of targeted agents with the PI3K inhibitors inavolisib, alpelisib, duvelisib, and copanlisib in multi-cell type tumor spheroids
# A high-throughput screen of multi-cell type tumor spheroids was designed to identify active combinations of targeted small molecules and PI3K pathway inhibitors. Complex spheroids include a stromal component modeled by human endothelial cells (HUVEC) and fibroblasts modeled by human mesenchymal stem cells (MSCs). The concentration ranges selected for each drug and investigational agent were based upon clinically achievable concentrations if the clinical Cmax of the agent was known.
# Compounds. The drugs and investigational agents: inavolisib (NSC800729), alpelisib (NSC765974), duvelisib (NSC772469), copanlisib (NSC816437), ipatasertib (NSC767898), afuresertib (NSC778305), talazoparib (NSC767125), sapanisertib (NSC764658), selumetinib (NSC741078), tovorafenib (DAY101, NSC766906), vemurafenib (NSC761431), ravoxertinib (NSC781343), sotorasib (NSC818433), MRTX1133 (NSC 836407), abemaciclib (NSC 768073), palbociclib (NSC758247), venetoclax (NSC 766270), SY5609 (NSC837396), enzalutamide (NSC755605), and darolutamide (NSC825331), were obtained from the National Cancer Institute (NCI) Developmental Therapeutics Program Chemical Repository. The FDA-approved anticancer drug set is available from the NCI Developmental Therapeutics Program. […] The stock solutions were prepared in dimethyl sulfoxide (DMSO, Sigma-Aldrich, St. Louis, MO, cat. D2650) at 800-fold the tested concentration and stored at -70 degrees C prior to their use. All drugs and investigational agents were tested over a range starting from a high concentration at or near the clinical Cmax and decreasing in half-log increments. If the clinical Cmax for an agent had not been determined, the highest concentration tested was 10 microM.
# Cell Culture. All cells were maintained in an incubator at 37 degrees C and 5% CO2 with 95% humidity. The PDC lines were cultured according to standard operating procedures established by the NCI PDMR (https://pdmr.cancer.gov/sops/default.htm). All PDCs were thawed and cultured in Matrigel-coated flasks prepared with a working solution of 1X Ham's F-12 nutrient mix, without supplementation (Invitrogen, Waltham, MA, cat. 11765054), 100 U/mL penicillin-streptomycin (Invitrogen, cat. 15140122), and 2.5% Matrigel (Corning Inc., Corning, NY, cat. 354248) for the first three passages. The 354836-022-R-J1-PDC, 475296-252-R-J1-PDC, and 997726-040-R-J2-PDC lines were cultured in 6A media, which includes advanced DMEM/F-12 (Thermo Fisher Scientific, cat. 12634028), 10 mM HEPES (Thermo Fisher Scientific, cat. 15630080), 1X GlutaMAX supplement (Thermo Fisher Scientific, cat. 35050061), 0.1 mg/mL primocin (InvivoGen, San Diego, CA, cat. ant-pm-2), 10% defined fetal bovine serum, heat inactivated (HyClone Laboratories Inc., Logan, UT, cat. SH30070.03HI), 50% L-WRN conditioned media (ATCC, cat. CRL-3276), 1.25 mM N-Acetyl-L-cysteine (Sigma-Aldrich, cat. A9165), 10 mM nicotinamide (Sigma-Aldrich, cat. N0636), 1X B-27 supplement (Thermo Fisher Scientific, cat. 17504044), 1X N-2 supplement (Thermo Fisher Scientific, cat. 17502048), and 10 microM Y-27632 dihydrochloride (Tocris Bioscience, Bristol, United Kingdom, cat. 1254). The 624824-186-R-J2-PDC line was cultured in 6C/Colon 1B media, which includes all 6A media components plus 50 ng/mL human EGF recombinant protein (Thermo Fisher Scientific, cat. PHG0311). […]
# [1] = second compound 0.00316 µM, first compound 0.0316 µM
# [2] = second compound 0.00316 µM, first compound 0.1 µM
# [3] = second compound 0.00316 µM, first compound 0.316 µM
# [4] = second compound 0.00316 µM, first compound 1 µM
# [5] = second compound 0.00316 µM, first compound 3.16 µM
# [6] = second compound 0.00316 µM, first compound 10 µM
# [7] = second compound 0.01 µM, first compound 0.0316 µM
# [8] = second compound 0.01 µM, first compound 0.1 µM
# [9] = second compound 0.01 µM, first compound 0.316 µM
# [10] = second compound 0.01 µM, first compound 1 µM
# [11] = second compound 0.01 µM, first compound 3.16 µM
# [12] = second compound 0.01 µM, first compound 10 µM
# [13] = second compound 0.0316 µM, first compound 0.0316 µM
# [14] = second compound 0.0316 µM, first compound 0.1 µM
# [15] = second compound 0.0316 µM, first compound 0.316 µM
# [16] = second compound 0.0316 µM, first compound 1 µM
# [17] = second compound 0.0316 µM, first compound 3.16 µM
# [18] = second compound 0.0316 µM, first compound 10 µM
# [19] = second compound 0.1 µM, first compound 0.0316 µM
# [20] = second compound 0.1 µM, first compound 0.1 µM
# [21] = second compound 0.1 µM, first compound 0.316 µM
# [22] = second compound 0.1 µM, first compound 1 µM
# [23] = second compound 0.1 µM, first compound 3.16 µM
# [24] = second compound 0.1 µM, first compound 10 µM
# [25] = second compound 0.316 µM, first compound 0.0316 µM
# [26] = second compound 0.316 µM, first compound 0.1 µM
# [27] = second compound 0.316 µM, first compound 0.316 µM
# [28] = second compound 0.316 µM, first compound 1 µM
# [29] = second compound 0.316 µM, first compound 3.16 µM
# [30] = second compound 0.316 µM, first compound 10 µM
# [31] = second compound 1 µM, first compound 0.0316 µM
# [32] = second compound 1 µM, first compound 0.1 µM
# [33] = second compound 1 µM, first compound 0.316 µM
# [34] = second compound 1 µM, first compound 1 µM
# [35] = second compound 1 µM, first compound 3.16 µM
# [36] = second compound 1 µM, first compound 10 µM
structure (smiles),measurement,setting,value
CC(C)NCC(C(=O)N1CCN(c2ncnc3c2C(C)CC3O)CC1)c1ccc(Cl)cc1 (stereo unspecified) + CC(Nc1ccc2c(c1)OCCn1cc(N3C(=O)OCC3C(F)F)nc1-2)C(N)=O,IC50,second compound 0.00316 µM,7030 nM
same,IC50,second compound 0.01 µM,6950 nM
same,IC50,second compound 0.0316 µM,5100 nM
same,IC50,second compound 0.1 µM,4310 nM
same,IC50,second compound 0.316 µM,2690 nM
same,IC50,second compound 1 µM,1920 nM
same,"viability, T/C",[1],95.8%
same,"viability, T/C",[2],94.6%
same,"viability, T/C",[3],99.3%
same,"viability, T/C",[4],86.6%
same,"viability, T/C",[5],67.1%
same,"viability, T/C",[6],42.5%
same,"viability, T/C",[7],87.5%
same,"viability, T/C",[8],93.1%
same,"viability, T/C",[9],81.8%
same,"viability, T/C",[10],81.6%
same,"viability, T/C",[11],60.1%
same,"viability, T/C",[12],45.2%
same,"viability, T/C",[13],86.6%
same,"viability, T/C",[14],84.1%
same,"viability, T/C",[15],72.7%
same,"viability, T/C",[16],71.4%
same,"viability, T/C",[17],56.8%
same,"viability, T/C",[18],39.9%
same,"viability, T/C",[19],71.6%
same,"viability, T/C",[20],72.8%
same,"viability, T/C",[21],67.7%
same,"viability, T/C",[22],63.5%
same,"viability, T/C",[23],54.5%
same,"viability, T/C",[24],38.2%
same,"viability, T/C",[25],66.2%
same,"viability, T/C",[26],63.7%
same,"viability, T/C",[27],59.7%
same,"viability, T/C",[28],61.6%
same,"viability, T/C",[29],47.2%
same,"viability, T/C",[30],30.8%
same,"viability, T/C",[31],64%
same,"viability, T/C",[32],61.3%
same,"viability, T/C",[33],58.9%
same,"viability, T/C",[34],52.9%
same,"viability, T/C",[35],48.3%
same,"viability, T/C",[36],34.9%
CCN1CCN(Cc2ccc(Nc3ncc(F)c(-c4cc(F)c5nc(C)n(C(C)C)c5c4)n3)nc2)CC1 + CC(Nc1ccc2c(c1)OCCn1cc(N3C(=O)OCC3C(F)F)nc1-2)C(N)=O,IC50,second compound 0.00316 µM,131 nM
same,IC50,second compound 0.01 µM,79.2 nM
same,IC50,second compound 0.0316 µM,53.2 nM
same,IC50,second compound 0.1 µM,24.4 nM
same,IC50,second compound 0.316 µM,21.4 nM
same,IC50,second compound 1 µM,20 nM
same,"viability, T/C","second compound 0.00316 µM, first compound 0.00316 µM",90.8%
same,"viability, T/C","second compound 0.00316 µM, first compound 0.01 µM",103%
same,"viability, T/C",[1],76%
same,"viability, T/C",[2],54.5%
same,"viability, T/C",[3],41.9%
same,"viability, T/C",[4],44.9%
same,"viability, T/C","second compound 0.01 µM, first compound 0.00316 µM",92.7%
same,"viability, T/C","second compound 0.01 µM, first compound 0.01 µM",96.3%
same,"viability, T/C",[7],65.7%
same,"viability, T/C",[8],50.1%
same,"viability, T/C",[9],40.6%
same,"viability, T/C",[10],47%
same,"viability, T/C","second compound 0.0316 µM, first compound 0.00316 µM",80.2%
same,"viability, T/C","second compound 0.0316 µM, first compound 0.01 µM",84.3%
same,"viability, T/C",[13],57.4%
same,"viability, T/C",[14],42.6%
same,"viability, T/C",[15],35%
same,"viability, T/C",[16],45.5%
same,"viability, T/C","second compound 0.1 µM, first compound 0.00316 µM",69.5%
same,"viability, T/C","second compound 0.1 µM, first compound 0.01 µM",70.4%
same,"viability, T/C",[19],44.2%
same,"viability, T/C",[20],37.1%
same,"viability, T/C",[21],33.3%
same,"viability, T/C",[22],43.8%
same,"viability, T/C","second compound 0.316 µM, first compound 0.00316 µM",63.4%
same,"viability, T/C","second compound 0.316 µM, first compound 0.01 µM",62.8%
same,"viability, T/C",[25],43.4%
same,"viability, T/C",[26],36.5%
same,"viability, T/C",[27],35.4%
same,"viability, T/C",[28],43.5%
same,"viability, T/C","second compound 1 µM, first compound 0.00316 µM",60.1%
same,"viability, T/C","second compound 1 µM, first compound 0.01 µM",64.8%
same,"viability, T/C",[31],41.7%
same,"viability, T/C",[32],34.5%
same,"viability, T/C",[33],34.4%
same,"viability, T/C",[34],39.1%
Cn1ncc(Cl)c1-c1cc(C(=O)NC(CN)Cc2cccc(F)c2)sc1Cl (stereo unspecified) + CC(Nc1ccc2c(c1)OCCn1cc(N3C(=O)OCC3C(F)F)nc1-2)C(N)=O,IC50,second compound 0.00316 µM,2720 nM
same,IC50,second compound 0.01 µM,2610 nM
same,IC50,second compound 0.0316 µM,1540 nM
same,IC50,second compound 0.1 µM,1260 nM
same,IC50,second compound 0.316 µM,1180 nM
same,IC50,second compound 1 µM,665 nM
same,"viability, T/C",[1],95.7%
same,"viability, T/C",[2],94.2%
same,"viability, T/C",[3],91.2%
same,"viability, T/C",[4],73.4%
same,"viability, T/C",[5],46.9%
same,"viability, T/C",[6],25.3%
same,"viability, T/C",[7],91.5%
same,"viability, T/C",[8],95.2%
same,"viability, T/C",[9],80.7%
same,"viability, T/C",[10],70.5%
same,"viability, T/C",[11],45.9%
same,"viability, T/C",[12],22.8%
same,"viability, T/C",[13],76.4%
same,"viability, T/C",[14],75.2%
same,"viability, T/C",[15],70.1%
same,"viability, T/C",[16],58.3%
same,"viability, T/C",[17],36.6%
same,"viability, T/C",[18],24.1%
same,"viability, T/C",[19],71.4%
same,"viability, T/C",[20],68.8%
same,"viability, T/C",[21],62.9%
same,"viability, T/C",[22],55.6%
same,"viability, T/C",[23],34.5%
same,"viability, T/C",[24],22%
same,"viability, T/C",[25],66.4%
same,"viability, T/C",[26],59.7%
same,"viability, T/C",[27],59.7%
same,"viability, T/C",[28],53.4%
same,"viability, T/C",[29],36.8%
same,"viability, T/C",[30],21%
same,"viability, T/C",[31],58.9%
same,"viability, T/C",[32],56.9%
same,"viability, T/C",[33],55.1%
same,"viability, T/C",[34],46.8%
same,"viability, T/C",[35],36.9%
same,"viability, T/C",[36],18.9%
